These results are taken from patent US20150368248A1, “2-SUBSTITUTED-6-BIARYLMETHYLAMINO-9-CYCLOPENTYL-9H-PURINE DERIVATIVES, USE THEREOF AS MEDICAMENTS, AND PHARMACEUTICAL COMPOSITIONS” (UNIVERZITA PALACKEHO V OLOMOUCI, priority 2013, published 2015).

Read-outs that look alike come from different tables or passages of the source.

Type in all cases: cell-based
Test [1] deals with human umbilical vein endothelial cells (HUVECs). Description: Migration scratch assay. More on the design: key to Wound area: ++: open; +: partly open; 0: closed. Particulars: for Wound area: 24 h. As to the method:
Migration assay was performed as described previously (Krystof et al., 2011, Eur J Med Chem.; 46(9):4289-94). Briefly, confluent HUVECs were scratched and immediately treated for 24 h with various doses of compounds. After incubation each well was photographed using a DP Controller system (Olympus) connected to a Olympus BX50 microscope. Migration was expressed as the proportion of pixels of the wound area in the image that were not covered by cells using “in house” software.

The test system of test [2] is human umbilical vein endothelial cells (HUVEC). As to the kind of experiment: HUVEC proliferation, Calcein AM. Particulars: Homo sapiens, HUVEC, read-out: Inhibitory concentration for HUVEC cells - IC50. As to the method: Novel 2-substituted-6-biarylmethylamino-9-cyclopentyl-9H-purine derivatives were tested for their potential anti-angiogenic properties; we analyzed its influence on the proliferation (Tab. 9), migration and tube formation of human umbilical vein endothelial cells (HUVEC). Confluent HUVECs were seeded in 96-well microtiter plates to detect their proliferation for 24 or 72 h using Calcein AM solution (Invitrogen) and a Fluoroskan Ascent microplate reader (Labsystems) as described previously (Krystof et al., 2011, Eur J Med Chem. 2011 September; 46(9):4289-94).

For the next test, the system named is HepG2. Description: MTT cytotoxicity assay (Example 30). Particulars: Homo sapiens, HepG2, 72 h; MTT, three days after drug addition; read-out: Inhibitory concentration IC50, HepG2. The source says: Cytotoxicity of the compounds is the major property determining their anticancer effect in vivo. One of the parameters used, as the basis for cytotoxicity assays, is the metabolic activity of viable cells. For example, a microtiter assay, which uses (3-(4,5-Dimethylthiazol-2-yl)-2,5-diphenyltetrazolium bromide (MTT), is widely used to quantitate cell proliferation and cytotoxicity. For instance, this assay is used in drug screening programs and in chemosensitivity testing. Because only metabolically active living cells reduce MTT to correspond purple formazan dye, these assays detect viable cells exclusively. The quantity of reduced MTT corresponds to the number of vital cells in the culture.
(§1) We have been using the following cell lines: HUH-7 and PLC/PRF/5 cell lines were maintained in DMEM supplemented with 10% fetal bovine serum, penicillin (100 U/ml) and streptomycin (100 μg/ml). Unique HCC-1.2 (3p) and HCC-1.1 (3sp) cell lines (Zilj et al., 2009, Future Oncol, 5(8):1169-79) and Hep3B cells were cultivated in RPMI supplemented with 10% fetal bovine serum, penicillin (100 U/ml) and streptomycin (100 μg/ml). HepG2 cell line was maintained in EMEM supplemented with 10% fetal bovine serum, sodium pyruvate (0.11 g/1), penicillin (100 U/ml) and streptomycin (100 μg/ml). All cell lines were cultivated at 37° C. in 5% CO2. For cytotoxicity assays, 3000 cells (10000 cells in case of HepG2 cell line) were seeded into each well of 96 well plate and the next day tested compounds were added at various concentrations in triplicates. Three days after drug addition MTT stock solution (5 mg/ml) was added into each well and incubated for 4 h. After this incubation period, produced formazan was dissolved by DMSO and final absorbance was measured at 570 nm with Synergy H4 Hybrid Multi-Mode Microplate Reader.

The subject of a further test is PLC/PRF/5. Description: MTT cytotoxicity assay (Example 30). Particulars: Homo sapiens, PLC-PRF-5, 72 h; MTT, three days after drug addition; read-out: Inhibitory concentration IC50, PLC/PRF/5. As to the method: (§2) Cytotoxicity of the compounds is the major property determining their anticancer effect in vivo. One of the parameters used, as the basis for cytotoxicity assays, is the metabolic activity of viable cells.
as §1, with “Unique HCC-1.2 (3p) and HCC-1.1 (3sp) cell lines (Zilj et al., 2009, Future Oncol, 5(8):1169-79) and Hep3B cells were cultivated in RPMI supplemented with 10% fetal bovine serum, penicillin (100 U/ml) and streptomycin (100 μg/ml).” left out

The next test relates to HCC-1.1 (3sp). Description: MTT cytotoxicity assay (Example 30). Particulars: Homo sapiens, 72 h; MTT, three days after drug addition; read-out: Inhibitory concentration IC50, 3sp. As to the method:
as §2
as §1, with “Unique HCC-1.2 (3p) and HCC-1.1 (3sp) cell lines (Zilj et al., 2009, Future Oncol, 5(8):1169-79) and Hep3B cells were cultivated in RPMI supplemented with 10% fetal bovine serum, penicillin (100 U/ml) and streptomycin (100 μg/ml).” left out

For a further test, the system named is HCC-1.2 (3p). As to the kind of experiment: MTT cytotoxicity assay (Example 30). Conditions: Homo sapiens, HCC-1.2, 72 h; MTT, three days after drug addition; read-out: Inhibitory concentration IC50, 3p. On the procedure:
as §2
as §1, with “Unique HCC-1.2 (3p) and HCC-1.1 (3sp) cell lines (Zilj et al., 2009, Future Oncol, 5(8):1169-79) and Hep3B cells were cultivated in RPMI supplemented with 10% fetal bovine serum, penicillin (100 U/ml) and streptomycin (100 μg/ml).” left out

A further test has as its system HUH-7. As to the kind of experiment: MTT cytotoxicity assay (Example 30). Conditions: Homo sapiens, Huh-7, 72 h; MTT, three days after drug addition; read-out: Inhibitory concentration IC50, HUH-7. On the procedure:
as §2
as §1, with “Unique HCC-1.2 (3p) and HCC-1.1 (3sp) cell lines (Zilj et al., 2009, Future Oncol, 5(8):1169-79) and Hep3B cells were cultivated in RPMI supplemented with 10% fetal bovine serum, penicillin (100 U/ml) and streptomycin (100 μg/ml).” left out

With `COc1ccccc1-c1ccc(CNc2nc(NC3CCC(N)CC3)nc3c2ncn3C2CCCC2)cn1` (centres unmarked) [BP18, N^2-(4-amino-cyclohexyl)-9-cyclopentyl-N^6-[6-(2-methoxy-phenyl)-pyridin-3-ylmethyl]-9H-purine-2,6-diamine], the Wound area entry is recorded as “+” in test [1] (100 nM) and “++” in test [1] (1000 nM). The IC50 in test [2] (24 h) is greater than 50000 nM; in test [2] (72 h) it was 520 nM; in the test with HepG2 it was 417 nM; in the test with PLC/PRF/5 it was 22 nM; in the test with HCC-1.1 (3sp) it was 791 nM; with HCC-1.2 (3p), 791 nM. Moreover, in the test on HUH-7, the IC50 came out at 618 nM.

Take `NC1CCC(Nc2nc(NCc3ccc(-n4cccn4)cc3)c3ncn(C4CCCC4)c3n2)CC1` (centres unmarked) [BP24, N^2-(4-amino-cyclohexyl)-9-cyclopentyl-N^6-(4-pyrazol-1-yl-benzyl)-9H-purine-2,6-diamine]: the values for the Wound area result in test [1] (100 nM) and in test [1] (1000 nM) were “+” and “++”, respectively. In addition, the IC50 was greater than 50000 nM in test [2] (24 h); 170 nM in test [2] (72 h); 142 nM in the test with HepG2; 12 nM in the test with PLC/PRF/5; 339 nM with HCC-1.1 (3sp); 169 nM in the test on HCC-1.2 (3p). For the same molecule, in the test with HUH-7, the IC50 worked out at 177 nM.

Consider `NC1CCC(Nc2nc(NCc3ccc(-c4ccco4)nc3)c3ncn(C4CCCC4)c3n2)CC1` (centres unmarked) [BP14, N^2-(4-amino-cyclohexyl)-9-cyclopentyl-N^6-(6-furan-2-yl-pyridin-3-ylmethyl)-9H-purine-2,6-diamine], for which the Wound area entry in test [1] (100 nM) was “+”; in test [1] (1000 nM), “++”. Also, the IC50 in test [2] (24 h) is greater than 50000 nM; in test [2] (72 h) it was 50 nM; in the test with HepG2 it was 211 nM; in the test with PLC/PRF/5 it was 7 nM; with HCC-1.1 (3sp), 513 nM; in the test with HCC-1.2 (3p) it was 410 nM. The IC50 in the test with HUH-7 was 373 nM.

For `NC1CCC(Nc2nc(NCc3ccc(-c4cccc(F)c4)nc3)c3ncn(C4CCCC4)c3n2)CC1` (centres unmarked) [BP19, N^2-(4-amino-cyclohexyl)-9-cyclopentyl-N^6-[6-(3-fluoro-phenyl)-pyridin-3-ylmethyl]-9H-purine-2,6-diamine], the Wound area entry in test [1] (100 nM) was “+”; in test [1] (1000 nM) it was “++”. Besides, the IC50 in test [2] (24 h) was 21800 nM; in test [2] (72 h), 370 nM; with HepG2, 111 nM; with PLC/PRF/5 it was 9 nM; in the test with HCC-1.1 (3sp), 410 nM; in the test with HCC-1.2 (3p), 191 nM. In addition, the IC50 with HUH-7 was found to be 281 nM.

In the case of `NC1CCC(Nc2nc(NCc3ccc(-c4cccs4)nc3)c3ncn(C4CCCC4)c3n2)CC1` (centres unmarked) [BP30, N^2-(4-amino-cyclohexyl)-9-cyclopentyl-N^6-(6-thiophen-2-yl-pyridin-3-ylmethyl)-9H-purine-2,6-diamine], the Wound area entry in test [1] (100 nM) and in test [1] (1000 nM) was “++” throughout. Also, in test [1] (100 nM, 24 h treatment), the “inhibition of migration (in words)” value was “Significant inhibition of migration”. In addition, the IC50 in test [2] (24 h) was 20400 nM; in test [2] (72 h) it was 80 nM; with HepG2, 206 nM; in the test with PLC/PRF/5 it was 15 nM; in the test on HCC-1.1 (3sp), 476 nM; with HCC-1.2 (3p) it was 205 nM. The IC50 with HUH-7 amounted to 184 nM.

On to `Nc1ccccc1-c1ccc(CNc2nc(NC3CCC(N)CC3)nc3c2ncn3C2CCCC2)cc1` (centres unmarked) [BP32, N^2-(4-amino-cyclohexyl)-9-cyclopentyl-N^6-(2′-amino-biphenyl-4-ylmethyl)-9H-purine-2,6-diamine], for which the IC50 is greater than 1000 nM with HepG2; 122 nM in the test with PLC/PRF/5; 687 nM with HCC-1.1 (3sp); 543 nM in the test on HCC-1.2 (3p); 647 nM in the test with HUH-7.

For `NC1CCC(Nc2nc(NCc3ccc(-c4ccoc4)cc3)c3ncn(C4CCCC4)c3n2)CC1` (centres unmarked) [BP13, N^2-(4-amino-cyclohexyl)-9-cyclopentyl-N^6-(4-furan-3-yl-benzyl)-9H-purine-2,6-diamine], the IC50 in the test on HepG2 came to 256 nM; in the test on PLC/PRF/5 it was 76 nM; in the test with HCC-1.1 (3sp) it was 613 nM; with HCC-1.2 (3p) it was 602 nM; in the test with HUH-7 it was 339 nM.

On to `COc1ccccc1-c1ccc(CNc2nc(NC3CCC(N)CC3)nc3c2ncn3C2CCCC2)cc1` (centres unmarked) [BP16, N^2-(4-amino-cyclohexyl)-9-cyclopentyl-N^6-(2′-methoxy-biphenyl-4-ylmethyl)-9H-purine-2,6-diamine], for which the IC50 in the test with HepG2 was 937 nM; in the test with PLC/PRF/5 it was 129 nM; with HCC-1.1 (3sp), 767 nM; in the test on HCC-1.2 (3p), 580 nM; in the test on HUH-7 it was 363 nM.

In the case of `OC1CCC(Nc2nc(NCc3ccc(-c4ccco4)nc3)c3ncn(C4CCCC4)c3n2)CC1` (centres unmarked) [BP21, 4-{9-cyclopentyl-6-[(6-furan-2-yl-pyridin-3-ylmethyl)-amino]-9H-purine-2-ylamino}-cyklohexanol], the IC50 in the test with HepG2 was 38 nM; with PLC/PRF/5, 46 nM; in the test with HCC-1.1 (3sp) it was 408 nM; in the test with HCC-1.2 (3p), 167 nM; in the test on HUH-7, 155 nM.

With `NC1CCC(Nc2nc(NCc3ccc(-c4cccc(F)c4)cc3)c3ncn(C4CCCC4)c3n2)CC1` (centres unmarked) [BP12, N^2-(4-amino-cyclohexyl)-9-cyclopentyl-N^6-(3′-fluoro-biphenyl-4-ylmethyl)-9H-purine-2,6-diamine], the IC50 with HepG2 was determined as 248 nM; in the test on PLC/PRF/5, 77 nM; in the test on HCC-1.1 (3sp), 492 nM; in the test on HCC-1.2 (3p), 288 nM; in the test with HUH-7, 199 nM.

Consider `Nc1ccccc1-c1ccc(CNc2nc(NC3CCC(N)CC3)nc3c2ncn3C2CCCC2)cn1` (centres unmarked) [BP22, N^2-(4-amino-cyclohexyl)-9-cyclopentyl-N^6-[6-(2-amino-phenyl)-pyridin-3-ylmethyl]-9H-purine-2,6-diamine], for which the IC50 is greater than 1000 nM with HepG2; 280 nM in the test with PLC/PRF/5; 516 nM in the test on HCC-1.1 (3sp); 436 nM in the test on HCC-1.2 (3p); 642 nM in the test with HUH-7.

Turning to `NC1CCC(Nc2nc(NCc3ccc(-c4cccs4)cc3)c3ncn(C4CCCC4)c3n2)CC1` (centres unmarked) [BP2, N^2-(4-amino-cyclohexyl)-9-cyclopentyl-N^6-(4-thiophen-2-yl-benzyl)-9H-purine-2,6-diamine], the IC50 with HepG2 turned out to be 444 nM; in the test with PLC/PRF/5 it was 105 nM; in the test with HCC-1.1 (3sp), 466 nM; in the test with HCC-1.2 (3p), 317 nM; in the test with HUH-7, 319 nM.

On to `NC1CCC(Nc2nc(NCc3ccc(-c4ccsc4)cc3)c3ncn(C4CCCC4)c3n2)CC1` (centres unmarked) [BP5, N^2-(4-amino-cyclohexyl)-9-cyclopentyl-N^6-(4-thiophen-3-yl-benzyl)-9H-purine-2,6-diamine], for which the IC50 was found to be 247 nM with HepG2; 60 nM in the test on PLC/PRF/5; 454 nM with HCC-1.1 (3sp); 420 nM in the test with HCC-1.2 (3p); 231 nM in the test on HUH-7.
